Target: T1, TRPV1 (transient receptor potential vanilloid 1, capsaicin receptor) (Rattus norvegicus, UniProt O35433)
T1 construct: full-length wild-type rat TRPV1 in pcDNA3.1(+), transient transfection in HEK 293 cells; fura-2 Ca2+ imaging
Experiment: fura-2 Ca2+ imaging concentration-response in TRPV1-expressing HEK […] cells; whole-cell patch clamp, cobalt uptake, Y511A mutant and competition with capsaicin
Assay type: cell-based

T1 sequence (O35433 whole entry): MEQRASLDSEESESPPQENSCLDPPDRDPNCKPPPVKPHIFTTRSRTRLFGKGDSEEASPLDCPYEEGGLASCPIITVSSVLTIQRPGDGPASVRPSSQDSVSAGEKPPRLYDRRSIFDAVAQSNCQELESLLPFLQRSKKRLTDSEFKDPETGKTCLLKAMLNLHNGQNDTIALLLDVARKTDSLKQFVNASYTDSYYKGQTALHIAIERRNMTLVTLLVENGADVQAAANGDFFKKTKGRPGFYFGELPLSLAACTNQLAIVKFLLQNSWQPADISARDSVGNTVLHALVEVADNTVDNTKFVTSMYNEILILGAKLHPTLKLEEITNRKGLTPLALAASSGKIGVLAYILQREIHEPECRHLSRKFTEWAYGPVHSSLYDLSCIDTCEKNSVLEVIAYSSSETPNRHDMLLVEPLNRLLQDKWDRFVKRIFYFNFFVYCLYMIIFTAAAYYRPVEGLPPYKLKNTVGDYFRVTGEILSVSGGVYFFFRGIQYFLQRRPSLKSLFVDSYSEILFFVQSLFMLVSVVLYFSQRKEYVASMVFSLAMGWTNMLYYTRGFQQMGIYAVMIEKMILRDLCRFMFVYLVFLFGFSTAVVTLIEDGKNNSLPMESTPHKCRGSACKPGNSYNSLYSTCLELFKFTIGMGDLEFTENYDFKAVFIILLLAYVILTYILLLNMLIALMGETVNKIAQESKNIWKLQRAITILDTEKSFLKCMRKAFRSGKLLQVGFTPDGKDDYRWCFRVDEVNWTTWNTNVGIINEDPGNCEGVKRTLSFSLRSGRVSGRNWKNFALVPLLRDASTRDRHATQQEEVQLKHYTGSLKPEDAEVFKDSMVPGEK

With `CCCCCCCC/C=C\CCCCCCCC(=O)OC[C@H](CO)OC(C)=O` [OAG, 1-oleoyl-2-acetyl-sn-glycerol] the EC50 was 13 µM.

Source: PMC2576176, “Direct activation of Transient Receptor Potential Vanilloid 1(TRPV1) by Diacylglycerol (DAG)” (Molecular Pain, 2008)
